Measurements taken from patent US20260115161A1, “2-HYDROXY-OCTADECENE-9-CIS-OATE FOR USE IN THE TREATMENT OF ONCOLOGICAL PATHOLOGIES AND NEUROPATHIC PAIN” (Laminar Pharmaceuticals S.A., priority 2023, published 2026).
pIC50: −log10 of the molar value.

What was measured:
SNB19 Glioblastoma = experiment: cells; details: Homo sapiens, SNB-19
Protocol: (§1) To study the possible use of HOCOS in combinatorial therapies, human glioblastoma cells of lines U118, SNB19, SF268, human mesothelioma cells NCI-H2021 and pancreatic cancer cells BxPC-3 (pancreatic adenocarcinoma) and MIAPaCa-2 ([…]) were cultured in the absence or presence of different chemotherapeutic agents and combinations of HOCOS with said compounds.

BxPC-3 Pancreas = experiment: Cell line assay, HOCOS combinations, BxPC-3; type: cell-based; details: Homo sapiens; BxPC-3, compound alone
Protocol: as §1

A549 Lung = experiment: Cell line assay, HOCOS combinations, A549; type: cell-based; details: Homo sapiens; A549, compound alone
NCI-H2021 Mesothelioma = experiment: Cell line assay, HOCOS combinations, NCI-H2021; type: cell-based, human; details: NCI-H2021, compound alone
Protocol: as §1

[1] = system: neuropathic pain due to spinal cord injury; details: Cardenas et al., cited from earlier work
U118 Glioblastoma = experiment: Cell line assay, HOCOS combinations, U118; type: cell-based; details: Homo sapiens; U118, compound alone
Protocol: as §1

Cc1ncc(C[n+]2csc(CCO)c2C)c(N)n1 [Thiamine]
pIC50 (SNB19 Glioblastoma): 1.81

Nc1ccn([C@@H]2O[C@H](CO)[C@@H](O)C2(F)F)c(=O)n1 [Gemcitabine]
pIC50 (BxPC-3 Pancreas): 8.11

C#Cc1cccc(Nc2ncnc3cc(OCCOC)c(OCCOC)cc23)c1 [Erlotinib]
pIC50 (A549 Lung): 4.80

N.N.[Cl][Pt][Cl] [Cisplatin]
pIC50 (NCI-H2021 Mesothelioma): 4.79

CC(C)C[C@H](CN)CC(=O)O [pregabalin]
percentage of patients responding, pregabalin group ([1]; 33% in the placebo group): 48% | mean reduction of neuropathic pain [1]: 1.2 points on the VAS scale | patients responding to treatment [1]: approximately 50% | difference between pregabalin and placebo groups ([1]; VAS scale): 0.82 points

CCc1c2c(nc3ccc(OC(=O)N4CCC(N5CCCCC5)CC4)cc13)-c1cc3c(c(=O)n1C2)COC(=O)[C@]3(O)CC [Irinotecan]
pIC50 (U118 Glioblastoma): 4.83
